{"source": "patent US20240299393A1", "about": "“SMALL MOLECULE DISRUPTORS OF PROTEIN INTERACTIONS IN HISTONE DEACETYLASE COMPLEXES” (Dana-Farber Cancer Institute, Inc., priority 2021, published 2024)", "key": {"[1]": {"target": "Sc Sin3 PAH2-Ume6 SID (TAMRA-labeled) interaction (Saccharomyces cerevisiae, UniProt P22579)", "sequence (P22579 402-473)": "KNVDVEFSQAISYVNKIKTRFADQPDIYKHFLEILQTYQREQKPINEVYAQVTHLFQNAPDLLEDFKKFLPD", "test": "biochemical", "description": "Symbols represent individual data points (A) or means with SEM, and lines fitted curves.\nIC50 determination for unlabeled Ume6 SID, E6, E6R and E6S: the concentrations of FITC-Ume6 SID (30 nM), and GST-Sin3 PAH2 (3 μM) were fixed and the compounds were titrated with an HP D300 (Hewlett-Packard, CA) to the assay plate."}, "[2]": {"target": "T1, human SIN3B PAH2 domain (Homo sapiens, UniProt O75182)", "T1 construct": "Residues 155-241 of human SIN3B (PAH2 domain) were inserted into the pMALC2XE vector for NMR experiments; made in house; host or cells: E. coli BL21 (DE3)", "T1 sequence (O75182 155-241)": "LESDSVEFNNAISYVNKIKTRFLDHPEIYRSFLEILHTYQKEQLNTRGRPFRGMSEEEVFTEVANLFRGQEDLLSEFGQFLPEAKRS", "test": "Ligand-detected NMR, human SIN3B PAH2", "format": "binding, H. sapiens", "settings": "300 μM compound, 10 μM protein", "experimental": "Ligand-detected NMR experiments: all results were acquired using a 3 mm tube at 25° C. on a Bruker 600 MHz Avance II system equipped with a CPPTCI cryoprobe (Bruker BioSpin Corp.). In all experiments, the concentration of E6R was fixed at 300 μM (from a stock of 25 mM in deuterated DMSO) and the concentration of the protein at 10 μM. The volume of deuterated DMSO was kept constant (1.5%) in all tested samples. Right before the experiments, the compound and protein were diluted in 1×PBS containing 0.1% deuterated dithiothreitol (DTT) to a total volume of 200 μL. Samples were diluted by 5% with D2O for magnetic field lock. Spectra were acquired for ligand only, protein only, and ligand+protein. […] STD experiments [Mayer et al 2001] were acquired with 160 scans, with protein irradiation applied for 3 s at 0 ppm and −20 ppm for the on and off resonance experiments, respectively. On and off resonance spectra were collected and stored separately. One-dimensional CPMG-R2 edited experiments [Hajduk et al 1997] were collected for samples with and without proteins using seven CPMG delays (0, 25, 50, 100, 300, 500, and 800 ms) with four scans per delay. Proton spectra used to measure DLB and chemical shift perturbations in the absence and presence of the proteins were recorded with 16 scans using a recycle delay of 3 s. […]"}, "[3]": {"test_system": "mouse frontal cortex transcriptome", "test": "RNA-seq of mouse frontal cortex after chronic treatment", "format": "in vivo", "experimental": "(§1) For the pilot RT-qPCR experiment, in addition to the vehicle condition (ethanol 100%/kolliphor/saline 0.9% in a proportion of 1:1:14.4; for the 50 mg/kg dose, 14 μL NaOH 1M were also added), three doses (mg/kg) of E6R were tested: 5, 15, and 50, with 4 (vehicle) or 3 (E6R) animals per group. A dose of 50 mg/kg was picked to conduct further experiments. For the RNA-Seq experiment, E6R was dissolved in a vehicle solution containing saline 55% v/v, DMSO 34% v/v, ethanol 5% v/v, kolliphor EL (Sigma-Aldrich, MO, USA) 5% v/v, NaOH 1M 1% v/v. The vehicle group received the same solution. Animals were injected daily by intraperitoneal (I.P.) injection with 5 μL/g of the solution (50 mg/kg of the drug or vehicle) at 11 am for 10 days. Animal wellness was verified by daily visual inspection and weighing. […] On the 11th day, animals were sacrificed by bleeding via heart puncture under carbon dioxide anesthesia. The brains were quickly removed and the bilateral frontal cortex (bregma 1.90 to 1.40 mm) was dissected followed by total RNA extraction. The spleens were also collected in the pilot RT-qPCR experiments.\nQiagen™ RNeasy mini kits (Valencia, CA) were used following the manufacturer's protocol. Extracted RNA was further purified using Qiagen™ RNeasy Mini columns to eliminate any trace of DNA, and dissolve in nuclease-free water. Purity of the RNA preparation was determined as the 260/280 nm ratio with expected values between 2 and 2.3. Samples were stored at −80° C. before being used for RT-qPCR (pilot experiment), or shipped to the GENEWIZ company on dry ice for library construction and RNA sequencing.\nRNA integrity (RIN) and yield were assessed on an Agilent 2100 Bioanalyzer, and samples with RIN larger than 7 were selected. Prior to the RNA-Seq, ribosomal RNA was depleted from the samples using the RiboMinus™ Human/Mouse Transcriptome Isolation Kit (Thermo Fisher Scientific, Waltham, MA). All samples were sequenced on an Illumina Hi-Seq sequencer. ˜29 million 50 bp single-end reads per sample were obtained. Sequencing adapters were removed using Trimmomatic v.0.33 [Bolger et al 2014]. Quality control at each processing step was performed using the FastQC tool v0.11.2 (quality base calls, GC content distribution, duplicate levels, complexity level) [Andrews 2010]. The Mouse GRCm38/mm10 reference genome was obtained from UCSC Genome Browser Gateway (http://hgdownload.soe.ucsc.edu/goldenPath/mm10/bigZips/chromFa.tar.gz), and the corresponding gene annotation file was obtained from Ensemble (ftp://ftp.ensembl.org/pub/release-83/gtf/mus_musculus/Mus_musculus.GRCm38.83.gtf.gz) on Feb. 20, 2016. Only autosomes, mitochondrial, and sex chromosomes were used. Reads were aligned using the subread v.1.6.2 aligner [Liao et al 2013]. Gene counts were obtained for each sample based on the last […] version of Ensembl transcriptome (v.87) using the featureCounts v.1.2.6 software [Liao et al 2014]. RNA-Seq counts were preprocessed and analyzed for differential expression using the edgeR v.3.24.3 [Robinson et al 2010] R package. P-values for differentially expressed genes were corrected using a false discovery rate (FDR) multiple testing correction method [Benjamini & Hochberg 1995]. Functional enrichment analysis (GO, KEGG) was performed using enrichr [Chen et al 2013]. Enrichment analysis using custom signatures was performed using hypergeometric test in the clusterProfiler v.3.10.1 R package [Yu et al 2012]. […]"}, "[4]": {"test": "Tolerability of chronic treatment in mice", "format": "in vivo", "settings": "50 mg/kg I.P. daily for 10 days", "experimental": "as §1"}}, "note": "Entries after “also recorded” stand apart in the source; their conditions may differ.", "data": [{"compound": "C[C@@H](NC(=O)c1c(O)n2ccccc2nc1=O)c1ccccc1", "note": "[E6R, 4-hydroxy-2-oxo-N—((R)-1-phenylethyl)-3,4-dihydro-2H-pyrido[, 2-a]pyrimidine-3-carboxamide]", "values": [{"measurement": "IC50", "setting": "[1]", "value": 63.7, "unit": "µM"}, {"measurement": "binding to human SIN3B PAH2 by NMR", "setting": "[2]", "value": "could bind; also recorded: virtually identical to those of yeast Sin3 PAH2"}, {"measurement": "fewer transcriptomic changes compared to conditional Hdac2 deletion", "setting": "[3]; 50 mg/kg ten days", "value": "approximately 80 fold"}, {"measurement": "differentially expressed genes between HDAC2 cKO+vehicle and HDAC2 cKO+compound", "setting": "[3]; HDAC2 cKO mice, 50 mg/kg", "value": "Nine"}, {"measurement": "genes with altered expression in mouse FC relative to WT+vehicle", "setting": "[3]; WT mice, 50 mg/kg I.P. daily 10 days, FDR=0.3, p<0.05, Example 9", "value": 39, "unit": "genes"}, {"measurement": "genes significantly affected in the FC", "setting": "[3]; WT mice, 50 mg/kg ten days, Example 11", "value": 48, "unit": "genes"}, {"measurement": "Homer1 expression in FC", "setting": "[3]; WT mice, 50 mg/kg, vs WT+vehicle", "value": "downregulated"}, {"measurement": "tolerability, behavior and body mass", "setting": "[4]", "value": "No abnormal behavior or significant body mass decrease (>5%); also recorded: well-tolerated"}]}]}
